# Assay results as given in publication PMC4579270, “Identification and Characterization of an Irreversible Inhibitor of CDK2” (Chemistry & Biology, 2015).
# Key:
# Assay in all cases: Dundee protein kinase screen
# Format in all cases: biochemical
# SGK1 = SGK1 (Homo sapiens, UniProt O00141); settings: SGK1, 1µM; read-out: %Remaining activity at 1µM NU6300
# Method: (§1) Prior to determining its cellular activity, we carried out a screen to assess its selectivity against a panel of 131 protein kinases under conditions that would not distinguish between a reversible or irreversible mode of action. […] These 13 kinases and 29 additional kinases, selected for their known sensitivity to other inhibitors within the purine series, were then tested in a modified screening format in which the assay was repeated following a 4-hr pre-incubation (Table S3B). […] However, conformational flexibility around the active site may promote such an interaction with a residue from another part of the structure ([Martin et al., 2012]).
# (§2) Table S3, Related to Figure 4. NCL-0006300 protein kinase selectivity. (A) NU6300 was tested at a single concentration of 1µM against 131 protein kinases present in a Dundee protein kinase screen (Bain et al., 2007). Values given are % activity remaining and are the average of duplicate measurements: 0-25% (red), 26-50% (yellow), 51-80% (black) and above 81% (green). The kinase domain sequences (as defined by UniProt) of […]
# (§3) have a lysine residue at a position close to CDK2 Lys88 or Lys89. However, in the structure of tyrosine-protein kinase BTK (PDB ID: 3GEN) the residue equivalent to CDK2 Asp86 is Cys481 and therefore there is the potential for a covalent adduct to be formed through this side chain. Ephrin type-B receptor 3 (UniProt entry P54753) also encodes a cysteine residue (Cys717) that by sequence alignment would be predicted to be close to the CDK2 lysine pair. (B) Selected kinases were re-tested in the Dundee kinase screen against NU6300 at a single concentration of 0.5 µM both in the standard assay format and following a 4 hour pre-incubation in the presence of NU6300. Kinases which have very low activity after the 4 hour incubation so that results might not be wholly reliable are boxed in salmon. Kinases where the activity after a 4 hour pre-incubation is < 50% that in the standard assay format are highlighted in red.
# PIM3 = PIM3 (Homo sapiens, UniProt Q86V86); settings: PIM3, 1µM; read-out: %Remaining activity at 1µM NU6300
# Method: as §1, §2, §3
# HER4 = HER4 (Homo sapiens, UniProt Q15303); settings: HER4, 1µM; read-out: %Remaining activity at 1µM NU6300
# Method: as §1, §2, §3
# PAK2 = PAK2 (Homo sapiens, UniProt Q13177); settings: PAK2, 1µM; read-out: %Remaining activity at 1µM NU6300
# Sequence of PAK2 (Q13177 whole entry): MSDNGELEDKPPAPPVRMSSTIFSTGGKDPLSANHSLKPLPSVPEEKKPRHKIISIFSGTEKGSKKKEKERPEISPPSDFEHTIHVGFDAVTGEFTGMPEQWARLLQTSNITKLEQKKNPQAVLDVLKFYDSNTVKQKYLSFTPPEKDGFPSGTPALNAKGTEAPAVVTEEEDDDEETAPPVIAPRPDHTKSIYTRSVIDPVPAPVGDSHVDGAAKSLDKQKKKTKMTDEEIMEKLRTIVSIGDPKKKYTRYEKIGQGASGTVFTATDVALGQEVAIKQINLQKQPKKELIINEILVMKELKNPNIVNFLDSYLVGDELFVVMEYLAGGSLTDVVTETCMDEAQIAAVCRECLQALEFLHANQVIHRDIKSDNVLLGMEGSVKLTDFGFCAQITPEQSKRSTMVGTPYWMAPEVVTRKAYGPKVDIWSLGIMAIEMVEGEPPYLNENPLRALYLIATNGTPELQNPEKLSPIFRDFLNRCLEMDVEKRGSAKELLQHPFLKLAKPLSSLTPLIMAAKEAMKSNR
# Method: as §1, §2, §3
# TrkA = TrkA (Homo sapiens, UniProt P04629); settings: read-out: %Remaining activity at 1µM NU6300
# Sequence of TrkA (P04629 33-796): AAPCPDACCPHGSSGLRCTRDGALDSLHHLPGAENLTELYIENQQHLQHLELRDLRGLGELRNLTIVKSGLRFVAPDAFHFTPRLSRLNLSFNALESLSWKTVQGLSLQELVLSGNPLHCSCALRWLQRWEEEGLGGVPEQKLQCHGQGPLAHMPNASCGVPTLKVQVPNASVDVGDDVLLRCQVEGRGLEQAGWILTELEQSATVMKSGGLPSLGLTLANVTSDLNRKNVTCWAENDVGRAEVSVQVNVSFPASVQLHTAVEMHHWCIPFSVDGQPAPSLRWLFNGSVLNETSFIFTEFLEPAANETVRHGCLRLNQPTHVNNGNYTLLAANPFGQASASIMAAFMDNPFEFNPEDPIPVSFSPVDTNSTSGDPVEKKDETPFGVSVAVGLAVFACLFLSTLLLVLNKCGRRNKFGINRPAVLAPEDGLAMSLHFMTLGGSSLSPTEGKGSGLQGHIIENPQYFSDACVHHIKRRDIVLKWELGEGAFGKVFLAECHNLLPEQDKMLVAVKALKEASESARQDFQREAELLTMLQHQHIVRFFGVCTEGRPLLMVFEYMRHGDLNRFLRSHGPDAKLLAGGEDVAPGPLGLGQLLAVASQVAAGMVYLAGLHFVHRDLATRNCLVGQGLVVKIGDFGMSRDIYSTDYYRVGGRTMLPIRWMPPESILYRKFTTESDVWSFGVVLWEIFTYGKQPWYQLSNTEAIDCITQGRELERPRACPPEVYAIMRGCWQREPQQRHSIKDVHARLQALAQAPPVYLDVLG
# Method: as §1, §2, §3
# IR = IR (Homo sapiens, UniProt P06213); settings: read-out: %Remaining activity at 1µM NU6300
# Method: as §1, §2, §3
# RSK1 = RSK1 (Homo sapiens, UniProt Q15418); settings: RSK1, 1µM; read-out: %Remaining activity at 1µM NU6300
# Method: as §1, §2, §3
# PAK4 = PAK4 (Homo sapiens, UniProt O96013); settings: PAK4, 1µM; read-out: %Remaining activity at 1µM NU6300
# Sequence of PAK4 (O96013 whole entry): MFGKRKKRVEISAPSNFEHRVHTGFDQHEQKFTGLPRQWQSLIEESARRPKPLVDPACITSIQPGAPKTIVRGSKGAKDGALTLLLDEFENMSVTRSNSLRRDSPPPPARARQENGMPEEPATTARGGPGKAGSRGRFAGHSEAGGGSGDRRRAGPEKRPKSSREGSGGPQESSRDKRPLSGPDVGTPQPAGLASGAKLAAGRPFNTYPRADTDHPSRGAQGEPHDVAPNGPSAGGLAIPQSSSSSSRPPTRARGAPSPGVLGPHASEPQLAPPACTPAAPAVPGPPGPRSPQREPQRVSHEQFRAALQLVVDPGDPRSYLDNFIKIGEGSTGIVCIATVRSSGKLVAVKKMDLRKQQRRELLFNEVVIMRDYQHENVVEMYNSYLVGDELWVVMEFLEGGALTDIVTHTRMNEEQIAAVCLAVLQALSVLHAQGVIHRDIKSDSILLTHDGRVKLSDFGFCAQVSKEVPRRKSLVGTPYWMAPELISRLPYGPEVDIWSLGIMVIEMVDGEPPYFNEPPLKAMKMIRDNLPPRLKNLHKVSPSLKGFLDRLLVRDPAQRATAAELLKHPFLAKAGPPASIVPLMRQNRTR
# Method: as §1, §2, §3
# GSK3β = GSK3β (Homo sapiens, UniProt P49841); settings: read-out: %Remaining activity at 1µM NU6300
# Sequence of GSK3β (P49841 whole entry): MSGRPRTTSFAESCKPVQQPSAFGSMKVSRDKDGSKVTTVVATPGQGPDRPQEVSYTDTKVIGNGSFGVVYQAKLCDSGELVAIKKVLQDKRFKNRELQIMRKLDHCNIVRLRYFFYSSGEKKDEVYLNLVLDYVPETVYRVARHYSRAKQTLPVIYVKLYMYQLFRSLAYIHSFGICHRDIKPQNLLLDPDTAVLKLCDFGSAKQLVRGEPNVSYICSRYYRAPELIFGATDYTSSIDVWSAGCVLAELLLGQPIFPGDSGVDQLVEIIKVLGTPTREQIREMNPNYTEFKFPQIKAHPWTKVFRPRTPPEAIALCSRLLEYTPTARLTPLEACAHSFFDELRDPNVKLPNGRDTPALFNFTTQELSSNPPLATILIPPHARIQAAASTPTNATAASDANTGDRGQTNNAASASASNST
# Method: as §1, §2, §3
# HIPK2 = HIPK2 (Homo sapiens, UniProt Q9H2X6); settings: HIPK2, 1µM; read-out: %Remaining activity at 1µM NU6300
# Method: as §1, §2, §3
# p38γ MAPK = p38γ MAPK (Homo sapiens, UniProt P53778); settings: read-out: %Remaining activity at 1µM NU6300
# Method: as §1, §2, §3
# SmMLCK = SmMLCK (Homo sapiens, UniProt Q15746); settings: read-out: %Remaining activity at 1µM NU6300
# Sequence of SmMLCK (Q15746 923-1914): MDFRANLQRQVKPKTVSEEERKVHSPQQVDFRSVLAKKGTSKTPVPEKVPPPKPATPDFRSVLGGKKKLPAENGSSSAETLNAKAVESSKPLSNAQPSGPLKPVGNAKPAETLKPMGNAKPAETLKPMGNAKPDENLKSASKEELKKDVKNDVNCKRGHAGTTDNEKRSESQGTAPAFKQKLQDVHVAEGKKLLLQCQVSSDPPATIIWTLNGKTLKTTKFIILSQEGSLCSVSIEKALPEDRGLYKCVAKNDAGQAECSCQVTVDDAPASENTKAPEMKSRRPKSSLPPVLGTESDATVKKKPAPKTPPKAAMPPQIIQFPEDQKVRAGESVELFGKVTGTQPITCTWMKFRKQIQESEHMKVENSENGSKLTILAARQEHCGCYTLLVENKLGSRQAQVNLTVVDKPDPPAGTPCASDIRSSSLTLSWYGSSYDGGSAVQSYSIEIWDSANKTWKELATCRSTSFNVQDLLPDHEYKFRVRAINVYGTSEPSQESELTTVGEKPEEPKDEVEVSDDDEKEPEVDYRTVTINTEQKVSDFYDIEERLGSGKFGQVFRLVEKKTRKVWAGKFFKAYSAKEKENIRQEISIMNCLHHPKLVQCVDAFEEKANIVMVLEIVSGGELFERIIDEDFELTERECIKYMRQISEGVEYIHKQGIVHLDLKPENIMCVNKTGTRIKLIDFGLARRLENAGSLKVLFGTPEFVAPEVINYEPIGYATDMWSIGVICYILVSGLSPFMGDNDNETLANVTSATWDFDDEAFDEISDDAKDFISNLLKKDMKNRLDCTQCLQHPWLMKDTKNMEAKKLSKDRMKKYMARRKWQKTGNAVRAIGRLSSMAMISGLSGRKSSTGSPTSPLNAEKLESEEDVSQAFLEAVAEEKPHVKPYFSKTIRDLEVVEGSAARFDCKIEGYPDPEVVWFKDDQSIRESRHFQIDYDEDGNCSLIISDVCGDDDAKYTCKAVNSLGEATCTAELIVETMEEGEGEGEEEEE
# Method: as §1, §2, §3
# CK2 = CK2 (Homo sapiens, UniProt P68400); settings: CK2, 1µM; read-out: %Remaining activity at 1µM NU6300
# Sequence of CK2 (P68400 whole entry): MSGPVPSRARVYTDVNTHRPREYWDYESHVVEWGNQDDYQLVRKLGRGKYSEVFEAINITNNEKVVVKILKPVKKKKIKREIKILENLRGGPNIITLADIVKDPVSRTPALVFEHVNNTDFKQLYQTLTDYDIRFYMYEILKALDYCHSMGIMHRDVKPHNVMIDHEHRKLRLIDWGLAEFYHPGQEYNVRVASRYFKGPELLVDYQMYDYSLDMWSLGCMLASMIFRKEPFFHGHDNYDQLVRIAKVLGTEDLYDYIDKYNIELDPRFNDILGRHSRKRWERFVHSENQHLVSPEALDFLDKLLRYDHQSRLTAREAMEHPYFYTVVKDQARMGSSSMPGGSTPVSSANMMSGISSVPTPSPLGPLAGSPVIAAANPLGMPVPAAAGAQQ
# Method: as §1, §2, §3
# VEG-FR1 = VEG-FR1 (Homo sapiens, UniProt P17948); settings: VEG-FR1, 1µM; read-out: %Remaining activity at 1µM NU6300
# Sequence of VEG-FR1 (P17948 27-1338): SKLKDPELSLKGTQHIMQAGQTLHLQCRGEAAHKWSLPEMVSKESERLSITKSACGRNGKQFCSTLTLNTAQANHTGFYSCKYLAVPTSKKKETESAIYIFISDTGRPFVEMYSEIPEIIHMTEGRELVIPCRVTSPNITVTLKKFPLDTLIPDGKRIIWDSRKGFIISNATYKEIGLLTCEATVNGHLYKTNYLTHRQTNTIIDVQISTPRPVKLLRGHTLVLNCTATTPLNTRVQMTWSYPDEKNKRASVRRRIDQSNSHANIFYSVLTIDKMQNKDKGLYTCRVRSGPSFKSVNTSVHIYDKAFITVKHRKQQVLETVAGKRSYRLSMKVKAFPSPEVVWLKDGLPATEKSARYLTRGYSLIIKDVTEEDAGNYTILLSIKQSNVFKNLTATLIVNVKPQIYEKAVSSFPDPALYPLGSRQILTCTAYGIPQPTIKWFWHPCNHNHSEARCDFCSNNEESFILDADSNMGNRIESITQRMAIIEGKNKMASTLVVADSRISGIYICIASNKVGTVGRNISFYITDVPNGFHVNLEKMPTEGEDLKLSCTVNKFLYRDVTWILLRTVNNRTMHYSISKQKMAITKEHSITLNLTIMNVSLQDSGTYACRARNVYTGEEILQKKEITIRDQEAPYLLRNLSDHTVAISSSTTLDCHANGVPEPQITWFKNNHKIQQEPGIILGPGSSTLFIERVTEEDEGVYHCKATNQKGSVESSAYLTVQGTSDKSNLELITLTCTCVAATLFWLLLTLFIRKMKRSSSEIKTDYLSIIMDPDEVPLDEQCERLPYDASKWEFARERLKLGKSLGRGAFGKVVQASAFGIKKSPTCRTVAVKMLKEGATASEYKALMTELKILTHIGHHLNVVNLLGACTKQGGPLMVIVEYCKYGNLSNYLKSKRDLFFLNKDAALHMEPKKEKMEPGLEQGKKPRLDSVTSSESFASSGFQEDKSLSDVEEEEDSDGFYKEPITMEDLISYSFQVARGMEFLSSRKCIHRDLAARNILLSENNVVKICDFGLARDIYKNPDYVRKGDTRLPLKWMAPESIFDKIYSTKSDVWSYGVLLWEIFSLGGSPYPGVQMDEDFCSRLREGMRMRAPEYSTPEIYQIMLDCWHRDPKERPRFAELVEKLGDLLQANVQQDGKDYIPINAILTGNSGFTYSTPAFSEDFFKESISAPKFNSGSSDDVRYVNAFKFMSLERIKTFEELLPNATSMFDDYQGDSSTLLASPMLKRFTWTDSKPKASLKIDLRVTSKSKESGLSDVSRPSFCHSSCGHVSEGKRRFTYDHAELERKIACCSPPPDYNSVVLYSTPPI
# Method: as §1, §2, §3
# IRAK1 = IRAK1 (Homo sapiens, UniProt P51617); settings: IRAK1, 1µM; read-out: %Remaining activity at 1µM NU6300
# Method: as §1, §2, §3
# MNK1 = MNK1 (Homo sapiens, UniProt Q9BUB5); settings: MNK1, 1µM; read-out: %Remaining activity at 1µM NU6300
# Method: as §1, §2, §3
structure (smiles),measurement,setting,value
"C=CS(=O)(=O)c1ccc(Nc2nc(OCC3CCCCC3)c3nc[nH]c3n2)cc1 [NU6300, 6-(cyclohexylmethoxy)-N-(4-(vinylsulfonyl)phenyl)-9H-purin-2-amine]",remaining activity at 1 µM,SGK1,93%
same,remaining activity at 1 µM,PIM3,56%
same,remaining activity at 1 µM,HER4,73%
same,remaining activity at 1 µM,PAK2,92%
same,remaining activity at 1 µM,TrkA,59%
same,remaining activity at 1 µM,IR,32%
same,remaining activity at 1 µM,RSK1,50%
same,remaining activity at 1 µM,PAK4,35%
same,remaining activity at 1 µM,GSK3β,42%
same,remaining activity at 1 µM,HIPK2,61%
same,remaining activity at 1 µM,p38γ MAPK,104%
same,remaining activity at 1 µM,SmMLCK,85%
same,remaining activity at 1 µM,CK2,91%
same,remaining activity at 1 µM,VEG-FR1,14%
same,remaining activity at 1 µM,IRAK1,37%
same,remaining activity at 1 µM,MNK1,102%
